{
  "source": "ChEMBL document CHEMBL1144319",
  "about": "“Design, synthesis, and evaluation of oxazole transthyretin amyloidogenesis inhibitors” (Bioorg Med Chem Lett, 2005)",
  "biological_target": "Transthyretin (Homo sapiens) (UniProt P02766)",
  "test": "Binding selectivity to transthyretin in human blood plasma after 24 hincubation with 10.8 uM inhibitor",
  "assay_type": "cell-free",
  "data": [
    {"smiles": "O=C(O)c1nc(-c2cc(Cl)cc(Cl)c2)oc1C(F)(F)F", "values": [
      {"measurement": "Molar equivalence bound", "result": 0.68}
    ]},
    {"smiles": "CCc1oc(-c2cc(Cl)cc(Cl)c2)nc1C(=O)O", "values": [
      {"measurement": "Molar equivalence bound", "result": 0.49}
    ]}
  ]
}
